We go through seven molecules from US12685708B2, “Skin care composition” (BEIERSDORF AG, priority 2019, dated 2026).

Holding throughout (type): cell-based, Cutibacterium acnes
The subject of one assay is C. acnes strain C3. The experiment in a line: Evaluation of the minimum inhibitory concentration (MIC) of cosmetic excipients. As to conditions: % w/vol, incubated anaerobically 3 days at 37° C., scored for growth or complete growth inhibition. Here is the method:
(§1) In microbiology, the MIC is the lowest concentration of a chemical which prevents visible growth of bacterium. The resulted MIC value depends both on the microorganism and the test compound. The MIC is determined by preparing concentrations series of the test compound in vitro, incubating the solutions with the separate batches of cultured bacteria, and measuring the results using agar dilution or broth microdilution. For the experiments with C. acnes strains C3 and K8, media comprising yeast extract soy peptone and dextrose were used. The MIC is determined by turbidity.
(§2) A total of 125 cosmetic excipients were tested for their compatibility with C. acnes strains C3 and K8. Hydrophilic compounds were tested in a 96-well plate liquid broth format, poorly soluble compounds were pre-dissolved in DMSO before dilution in liquid broth and hydrophobic or solid compounds were tested in an agar well diffusion test assay. The different dilutions of the test excipients in media were prepared in Falcon tubes and then distributed in a deep well plate using a multistepper. Each well received 1.2 ml and was subsequently inoculated with 120 μl of C. acnes bacteria suspension (strain C3 and K8). From the deep well plate 200 μl were transferred in each well of a clear 96 well replicate plate. The leftover was discarded. The plates were then incubated anaerobically for 3 days at 37° C. Following incubation, the test plates were visually examined and wells were scored for growth or complete growth inhibition to define the minimum inhibitory concentration.
(§3) These excipients are listed in the below table with their compatibility values for C. acnes strains C3 and K8. The compatibility values represent the MIC value of the listed ingredients with the tested C. acnes strains. At this concentration [% w/vol] the tested compound starts interfering with the growth of the tested strains. The compounds can be used in formulations at concentrations below this concentration.

For another assay, the system named is C. acnes strain K8. The assay is described as above. As to conditions: % w/vol, incubated anaerobically 3 days at 37° C., scored for growth or complete growth inhibition. Here is the method:
as §1, §2, §3

In assay [1] the test system is freeze-dried C. acnes strains K8 and C3. The experiment in a line: Reactivation assay of freeze dried bacteria in formulations (CFU count). As to conditions: statement in the description. From the text:
For this purpose, a freeze-dried powder of C. acnes strains K8 and C3 was produced and mixed with other ingredients as indicated below. Ingredients are listed in % (w/w). The formulations were provided in two pre-mixed compositions A and B that were finally mixed with each other. The following formulations were made: […]
The formulations are depicted in the form of a table in FIG. 1. For formulations 1-11, the CFU target value was 1×10^7. For formulations 12-15, the CFU target value was 1×10^6. A CFU count was performed directly after mixing the formulation to assess the effect of the prototype formulation on the revival and subsequent stability rate of the bacteria. Briefly, the formula component A (lyophilisate/oil suspension) and the formula component B (hydrogel/aqueous solution) are mixed together and well vortexed. Directly after mixing an aliquot is removed and transferred to 0.9% NaCl. Further dilutions are plated on COST agar plates and incubated anaerobically at 37° C. for 5 days.
Similar to the formulations tested in Example 2, another set of 11 prototype formulations was prepared with higher concentrations of the excipients of the invention. The formulations were tested as described in Example 2 for their impact on reactivation of freeze-dried C. acnes bacteria. As a control, a formulation containing the lyophilisate and low amounts of the excipients was prepared. […]

With `CCCCCCC(O)CO` (stereo not drawn) [caprylyl glycol], in the assay with C. acnes strain C3, the “COMPATABILITY VALUE C3 [%] (MIC)” value was found to be 0.18%. Moreover, in the assay on C. acnes strain K8, the “COMPATABILITY VALUE K8 [%] (MIC)” value was 0.18%.

Take `O=C(O)CC(O)(CC(=O)O)C(=O)O` [citric acid]: the “COMPATABILITY VALUE C3 [%] (MIC)” value in the assay with C. acnes strain C3 came out at 0.33%. In addition, in the assay on C. acnes strain K8, the “COMPATABILITY VALUE K8 [%] (MIC)” value was 0.08%.

Turning to `CC(CO)CO` [methylpropanediol], in the assay on C. acnes strain C3, the “COMPATABILITY VALUE C3 [%] (MIC)” value is 4.00%. In the assay on C. acnes strain K8, the “COMPATABILITY VALUE K8 [%] (MIC)” value was determined as 4.00%.

For the molecule `CC(=O)Oc1c(C)c(C)c2c(c1C)CCC(C)(CCC[C@H](C)CCC[C@H](C)CCCC(C)C)O2` (stereo partly drawn) [tocopheryl acetate], the “COMPATABILITY VALUE C3 [%] (MIC)” value in the assay with C. acnes strain C3 amounted to 1.00%. Also, the “COMPATABILITY VALUE K8 [%] (MIC)” value with C. acnes strain K8 amounted to 1.00%.

As for ethylhexyl cocoate, the “COMPATABILITY VALUE C3 [%] (MIC)” value in the assay with C. acnes strain C3 is given as 10.00%. Besides, in the assay with C. acnes strain K8, the “COMPATABILITY VALUE K8 [%] (MIC)” value is 10.00%.

On to peg-40 hydrogenated castor oil, for which, in the assay on C. acnes strain C3, the “COMPATABILITY VALUE C3 [%] (MIC)” value stood at 1.00%. In addition, the “COMPATABILITY VALUE K8 [%] (MIC)” value with C. acnes strain K8 is 1.00%. The “interference with viability and replication capability of the lyophilized or spray-dried bacteria” value in assay [1] is on record as “does not interfere”.

For the molecule tocopherol, the “COMPATABILITY VALUE C3 [%] (MIC)” value with C. acnes strain C3 is 1.50%. Besides, the “COMPATABILITY VALUE K8 [%] (MIC)” value in the assay with C. acnes strain K8 was 1.50%.
